Experiment [1] has as its system TrigoCor spores. As to the kind of experiment: Terbium chloride (DPA release) spore germination assay at 37° C., 10 mM germinant (Example 1). The experiment is classed as cell-based, Bacillus subtilis var. amyloliquefaciens. The settings on record: for Percent germination of TrigoCor spores: 10 mM germinant, mean ± standard deviation; for percent germination of spores as compared to control (in words): summary of Table 1, 10 mM. The protocol:
Bacillus starter cultures were grown in nutrient broth plus yeast extract (Crane et al. 2013), then were transferred 1:1000 to a modified Schaeffer's sporulation medium (Nicholson and Setlow 1990) containing per liter 2.012 g KCl, 0.492 g MgSO4. 7 H20, no NaOH, and 0.0197 g MnCl2.4H20, and grown for 72 h. All cultures were grown in 50 mL aliquots in beveled flasks at 37° C. with 225 RPM shaking. Liquid cultures were spun down at 4° C. for 10 min at 10,000 RCF, washed 10 times in cold deionized water, and resuspended in 5 mL cold deionized water. To remove vegetative cells, cultures were treated with lysozyme (final concentration 50 μg/mL) for 10 min on ice, followed by six rounds of 15 sec sonication on ice, then were washed twice with cold deionized water. Spore preparations were stored in deionized water at 4° C., and prior to use were washed once with cold deionzied water. Unless otherwise noted, spores were resuspended in 25 mM HEPES (Sigma-Aldrich, St. Louis, Mo.) pH 7.41 to produce a final concentration of 10^8 CFUs/mL. Purified spore cultures contained over 98% phase-bright spores and minimal cell debris, as verified through phase contrast microscopy.
Terbium chloride (1 mM) (Sigma-Aldrich, St. Louis, Mo.) and all germinant solutions were prepared in 25 mM HEPES pH 7.41 and added as noted in individual experiments. 90 μL TrigoCor spores were mixed with 10 μL of each germinant (100 mM, final concentration 10 mM) and incubated in a 96-well plate (Thermo Scientific, Waltham, Mass.) at 37° C. for 1, 10, 30, 60, or 120 min. Samples were prepared so that all incubations finished simultaneously and were analyzed together. For each germinant tested, two spore-germinant mixtures were loaded per incubation time. Germinants tested were D-glucose, D-fructose, KBr, KCl, L-alanine, L-asparagine, L-proline, L-valine, and the germinant combination AGFK (equimolar concentrations of L-asparagine, D-glucose, D-fructose, and KCl), or HEPES as a control. Following addition of 100 μL terbium chloride to all samples, fluorescence was measured as explained below.
At each plate reader measurement time, two 90 μL samples of spores autoclaved for 60 min mixed with 10 μL HEPES, as well as a sample containing a mixture of all germinants and HEPES, were added as additional samples in the plate and mixed with 100 μL terbium chloride. A final sample of pure deionized water was included in the plate as well, and these samples were measured alongside all other samples in the plate. Fluorescence was measured at 545 nm emission and 273 nm excitation according to Yi and Setlow (2010) using a Synergy 4 plate reader (Biotek Instruments Inc., Winooski, Vt.). […] Percent spore germination for each sample at each time point was calculated by dividing its relative fluorescence units (RFUs) by the corresponding average RFUs of the autoclaved cells, which have released all their dipicolinic acid (DPA) due to lysis (Yang and Ponce 2009) and provided in Table 1. Spore germination results were confirmed using phase contrast microscopy (data not shown).

In experiment [2] the test system is TrigoCor spores. The experiment can be described thus: Terbium chloride spore germination assay at 37° C., 10 or 100 mM germinant (Example 2). The format is cell-based, Bacillus subtilis var. amyloliquefaciens. The settings on record: for Percent germination of TrigoCor spores: mean ± standard deviation; for percent germination of spores as compared to control (in words): summary of Table 2, 10 or 100 mM. The protocol:
The following protocol was performed as per Example 1, with the following modification:
Terbium chloride (1 mM) (Sigma-Aldrich, St. Louis, Mo.) and all germinant solutions were prepared in 25 mM HEPES pH 7.41 and added as noted in individual experiments. 450 μL TrigoCor spores were mixed with 50 μL of each germinant (100 mM and 1 M, final concentrations 10 mM and 100 mM) and incubated at 37° C. Two samples were prepared for each germinant and germinants tested were D-glucose, L-alanine, AGFK, and an equimolar solution of glucose and alanine, or HEPES as a control. After 10, 30, 60, and 120 minutes of incubation, 100 μL was transferred from each tube to a 96-well plate. For an initial measurement of spore germination, two 100 μL samples of spores not mixed with germinants and kept at 4° C. were analyzed alongside the samples which had incubated for 10 minutes. Immediately following each sample time, 100 μL terbium chloride was added to all samples and fluorescence was measured as explained previously.
Percent spore germination for each sample at each time point was calculated by dividing its relative fluorescence units (RFUs) by the corresponding average RFUs of the autoclaved cells, which have released all their dipicolinic acid (DPA) due to lysis (Yang and Ponce 2009) and provided in Table 2. Spore germination results were confirmed using phase contrast microscopy (data not shown).

The mark [3] stands for this setting: 10 mM germinant, incubation time 10 min.
Where [4] appears, read: 10 mM germinant, incubation time 30 min.
Setting [5] is: 10 mM germinant, incubation time 60 min.
Setting [6] is: 10 mM germinant, incubation time 120 min.
The mark [7] stands for this setting: 100 mM germinant, incubation time 10 min.
[8] abbreviates: 100 mM germinant, incubation time 30 min.
Setting [9] is: 100 mM germinant, incubation time 60 min.
Where [10] appears, read: 100 mM germinant, incubation time 120 min.

The structures appear in SMILES notation.

On to `[Br-].[K+]` [Potassium bromide], for which the “Percent germination of TrigoCor spores” value with TrigoCor spores [1] (incubation time 1 min), with TrigoCor spores [1] (incubation time 10 min), in the experiment with TrigoCor spores [1] (incubation time 30 min), in the experiment on TrigoCor spores [1] (incubation time 60 min) and in the experiment with TrigoCor spores [1] (incubation time 120 min) was 1 ± 0% in each case.
With `[Cl-].[K+]` [Potassium chloride], the “Percent germination of TrigoCor spores” value in the experiment on TrigoCor spores [1] (incubation time 1 min), in the experiment on TrigoCor spores [1] (incubation time 10 min), in the experiment with TrigoCor spores [1] (incubation time 30 min), in the experiment on TrigoCor spores [1] (incubation time 60 min) and in the experiment with TrigoCor spores [1] (incubation time 120 min) was 1 ± 0% in each case.
Regarding `O=C(CO)[C@@H](O)[C@H](O)[C@H](O)CO` [D-fructose], the “Percent germination of TrigoCor spores” value with TrigoCor spores [1] (incubation time 1 min) turned out to be 1 ± 0%; in the experiment on TrigoCor spores [1] (incubation time 10 min), 1 ± 0%; with TrigoCor spores [1] (incubation time 30 min), 1 ± 0%; with TrigoCor spores [1] (incubation time 60 min), 1 ± 1%; in the experiment on TrigoCor spores [1] (incubation time 120 min), 1 ± 1%.
As for `C[C@H](N)C(=O)O` [L-alanine], the “Percent germination of TrigoCor spores” value in the experiment with TrigoCor spores [1] (incubation time 1 min) came out at 1 ± 0%; in the experiment on TrigoCor spores [1] (incubation time 10 min) it was 4 ± 0%; with TrigoCor spores [1] (incubation time 30 min), 20 ± 1%; in the experiment with TrigoCor spores [1] (incubation time 60 min), 23 ± 1%; in the experiment with TrigoCor spores [1] (incubation time 120 min) it was 21 ± 0%; in the experiment with TrigoCor spores [2] (setting [3]) it was 1 ± 0%. In addition, the “Percent germination of TrigoCor spores” value in the experiment with TrigoCor spores [2] (setting [4]) was determined as 13 ± 1%; with TrigoCor spores [2] (setting [5]), 41 ± 1%; in the experiment on TrigoCor spores [2] (setting [6]), 43 ± 1%; with TrigoCor spores [2] (setting [7]), 1 ± 0%; in the experiment with TrigoCor spores [2] (setting [8]) it was 47 ± 1%; in the experiment with TrigoCor spores [2] (setting [9]) it was 86 ± 3%. In addition, in the experiment on TrigoCor spores [2] (setting [10]), the “Percent germination of TrigoCor spores” value is reported as 90 ± 3%. In addition, the “percent germination of spores as compared to control (in words)” value with TrigoCor spores [1] and in the experiment with TrigoCor spores [2] was “increases” in each case.
Regarding `NC(=O)C[C@H](N)C(=O)O` [L-asparagine], the “Percent germination of TrigoCor spores” value with TrigoCor spores [1] (incubation time 1 min), with TrigoCor spores [1] (incubation time 10 min), in the experiment on TrigoCor spores [1] (incubation time 30 min), in the experiment on TrigoCor spores [1] (incubation time 60 min) and in the experiment with TrigoCor spores [1] (incubation time 120 min) was 1 ± 0% each time.
Regarding `O=C[C@H](O)[C@@H](O)[C@H](O)[C@H](O)CO` [D-glucose], the “Percent germination of TrigoCor spores” value is on record as 1 ± 0% in the experiment with TrigoCor spores [1] (incubation time 1 min); 1 ± 0% with TrigoCor spores [1] (incubation time 10 min); 5 ± 0% with TrigoCor spores [1] (incubation time 30 min); 10 ± 1% in the experiment on TrigoCor spores [1] (incubation time 60 min); 25 ± 1% with TrigoCor spores [1] (incubation time 120 min); 1 ± 0% with TrigoCor spores [2] (setting [3]). Further, the “Percent germination of TrigoCor spores” value in the experiment with TrigoCor spores [2] (setting [4]) was found to be 5 ± 0%; with TrigoCor spores [2] (setting [5]), 13 ± 1%; in the experiment with TrigoCor spores [2] (setting [6]) it was 28 ± 2%; in the experiment on TrigoCor spores [2] (setting [7]), 1 ± 0%; in the experiment with TrigoCor spores [2] (setting [8]), 7 ± 1%; in the experiment on TrigoCor spores [2] (setting [9]) it was 18 ± 2%. In addition, in the experiment on TrigoCor spores [2] (setting [10]), the “Percent germination of TrigoCor spores” value is 34 ± 1%. For the same compound, the “percent germination of spores as compared to control (in words)” value in the experiment on TrigoCor spores [1] and in the experiment with TrigoCor spores [2] was “increases” in each case.
In the case of `O=C(O)[C@@H]1CCCN1` [L-proline], the “Percent germination of TrigoCor spores” value with TrigoCor spores [1] (incubation time 1 min), with TrigoCor spores [1] (incubation time 10 min), in the experiment with TrigoCor spores [1] (incubation time 30 min), with TrigoCor spores [1] (incubation time 60 min) and in the experiment on TrigoCor spores [1] (incubation time 120 min) was 1 ± 0% each time.
For `CC(C)[C@H](N)C(=O)O` [L-valine], the “Percent germination of TrigoCor spores” value with TrigoCor spores [1] (incubation time 1 min), in the experiment on TrigoCor spores [1] (incubation time 10 min), in the experiment on TrigoCor spores [1] (incubation time 30 min), with TrigoCor spores [1] (incubation time 60 min) and in the experiment with TrigoCor spores [1] (incubation time 120 min) was 1 ± 0% throughout.
